In PubChem BioAssay (NCI):
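Where inhibition never reached the appropriate level, the endpoint shown equals the highest concentration tested. Otherwise, values were interpolated linearly from a five-concentration, 48-hour dose response in 96-well plates. GI50: concentration for 50% inhibition of growth. TGI is the concentration that stops growth completely.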

Legend:
Test in all cases: NCI tumour cell line growth inhibition, 48 h
[1] = test system: HCC-2998 colon
[2] = test system: SF-295 CNS
[3] = test system: IGROV1 ovarian
[4] = test system: NCI-H460 lung
[5] = test system: CAKI-1 renal
[6] = test system: HT29 colon
[7] = test system: LOX IMVI melanoma
[8] = test system: SK-OV-3 ovarian
[9] = test system: MDA-MB-435
[10] = test system: UACC-62 melanoma
[11] = test system: HL-60(TB) leukemia
[12] = test system: HCT-15 colon
[13] = test system: NCI-H522 lung
[14] = test system: CCRF-CEM leukemia
[15] = test system: MDA-MB-231 breast
[16] = test system: MCF7 breast
[17] = test system: OVCAR-5 ovarian
[18] = test system: RPMI-8226 leukemia
[19] = test system: PC-3 prostate
[20] = test system: NCI-H226 lung
[21] = test system: K-562 leukemia
[22] = test system: COLO 205 colon
[23] = test system: EKVX NSCLC
[24] = test system: M14 melanoma
[25] = test system: UACC-257 melanoma
[26] = test system: SNB-19 CNS
[27] = test system: MOLT-4 leukemia
[28] = test system: MALME-3M melanoma
[29] = test system: ACHN renal
[30] = test system: OVCAR-3 ovarian
[31] = test system: UO-31 renal
[32] = test system: NCI-H23 lung
[33] = test system: OVCAR-8 ovarian
[34] = test system: HOP-92 NSCLC
[35] = test system: SK-MEL-5 melanoma
[36] = test system: HS 578T breast
[37] = test system: A549 NSCLC
[38] = test system: NCI/ADR-RES ovarian
[39] = test system: SF-268 CNS
[40] = test system: SNB-75 CNS
[41] = test system: TK-10 renal
[42] = test system: SK-MEL-28 melanoma
[43] = test system: RXF 393 renal
[44] = test system: BT-549 breast
[45] = test system: SW-620 colon
[46] = test system: U251 CNS
[47] = test system: OVCAR-4 ovarian
[48] = test system: HCT-116 colon
[49] = test system: SN12C renal
[50] = test system: KM12 colon

Q: What does the source list for `O=C1/C(=C/c2ccc(Cl)cc2)CCCc2ccc(F)cc21`?
A: GI50 [1]: 21.2 µM; TGI [1]: 54.9 µM; GI50 [2]: 31.4 µM; TGI [2]: > 100 µM; GI50 [3]: 14.6 µM; TGI [3]: 68.3 µM; GI50 [4]: 20.1 µM; TGI [4]: 54 µM; GI50 [5]: 22.5 µM; TGI [5]: 64.5 µM; GI50 [6]: 24.2 µM; TGI [6]: > 100 µM; GI50 [7]: 14.4 µM; TGI [7]: 31.8 µM; GI50 [8]: 24.7 µM; TGI [8]: 69.4 µM; GI50 [9]: 20.3 µM; TGI [9]: > 100 µM; GI50 [10]: 16.1 µM; TGI [10]: 47 µM; GI50 [11]: 17.2 µM; TGI [11]: > 100 µM; GI50 [12]: 22.1 µM; TGI [12]: > 100 µM; GI50 [13]: 12.2 µM; TGI [13]: 54.5 µM; GI50 [14]: 11.5 µM; TGI [14]: 61 µM; GI50 [15]: 19.8 µM; TGI [15]: 52.8 µM; GI50 [16]: 8.35 µM; TGI [16]: > 100 µM; GI50 [17]: 32.4 µM; TGI [17]: > 100 µM; GI50 [18]: 4.36 µM; TGI [18]: 28.7 µM; GI50 [19]: 15.9 µM; TGI [19]: 48.3 µM; GI50 [20]: 16.8 µM; TGI [20]: 41.8 µM; GI50 [21]: 11.1 µM; TGI [21]: > 100 µM; GI50 [22]: 18.7 µM; TGI [22]: 56.3 µM; GI50 [23]: 27.9 µM; TGI [23]: 61 µM; GI50 [24]: 11.6 µM; TGI [24]: 39.2 µM; GI50 [25]: 16.7 µM; TGI [25]: 42.9 µM; GI50 [26]: 27.6 µM; TGI [26]: 80.2 µM; GI50 [27]: 12.1 µM; TGI [27]: > 100 µM; GI50 [28]: 6.45 µM; TGI [28]: 31.8 µM; GI50 [29]: 27.8 µM; TGI [29]: 68.5 µM; GI50 [30]: 16.9 µM; TGI [30]: 51.4 µM; GI50 [31]: 15.8 µM; TGI [31]: 35.9 µM; GI50 [32]: 36.7 µM; TGI [32]: > 100 µM; GI50 [33]: 22.8 µM; TGI [33]: 75.1 µM; GI50 [34]: 9.3 µM; TGI [34]: 34 µM; GI50 [35]: 17.4 µM; TGI [35]: 31.3 µM; GI50 [36]: 29.2 µM; TGI [36]: 62 µM; GI50 [37]: 26.4 µM; TGI [37]: > 100 µM; GI50 [38]: 26.6 µM; TGI [38]: 73.5 µM; GI50 [39]: 19.9 µM; TGI [39]: 46.9 µM; GI50 [40]: 48.3 µM; TGI [40]: > 100 µM; GI50 [41]: 15.7 µM; TGI [41]: 43.5 µM; GI50 [42]: 14.7 µM; TGI [42]: 40.9 µM; GI50 [43]: 24.2 µM; TGI [43]: 52 µM; GI50 [44]: 39.8 µM; TGI [44]: > 100 µM; GI50 [45]: 15.4 µM; TGI [45]: 31.6 µM; GI50 [46]: 13.4 µM; TGI [46]: 52.6 µM; GI50 [47]: 17.5 µM; TGI [47]: 51.2 µM; GI50 [48]: > 100 µM; TGI [48]: > 100 µM; GI50 [49]: 20.1 µM; TGI [49]: 42.9 µM; GI50 [50]: 12.9 µM; TGI [50]: 34.2 µM
